According to ChEMBL document CHEMBL1649364, “Synthesis and antifungal activity of some substituted phenothiazines and related compounds” (2011):
In brackets after ≈: the same amount, converted by molar mass. Activity calls are given as the source filed them. The rule behind the calls is not given here.

Columns and labels:
[1] = Antifungal activity against Aspergillus fumigates by microdilution test; format: functional
Pichia kudriavzevii = assay: Antifungal activity against Candida krusei by microdilution test; format: functional
Aspergillus flavus = assay: Antifungal activity against Aspergillus flavus by microdilution test; format: functional
Candida albicans = assay: Antifungal activity against Candida albicans by microdilution test; format: functional
Candida parapsilosis = assay: Antifungal activity against Candida parapsilosis by microdilution test; format: functional; settings: for MIC: Lodderomyces parapsilosis
Nakaseomyces glabratus = assay: Antifungal activity against Candida glabrata by microdilution test; format: functional
Exophiala spinifera = assay: Antifungal activity against Exophiala spinifera by microdilution test; format: functional
Aspergillus niger = assay: Antifungal activity against Aspergillus niger by microdilution test; format: functional
[2] = Antifungal activity against Exophiala xenobiotica by microdilution test; format: functional
[3] = test system: Meyerozyma guilliermondii; assay: Antifungal activity against Candida guilliermondii by microdilution test; format: functional
Aspergillus terreus = assay: Antifungal activity against Aspergillus terreus by microdilution test; format: functional
Aspergillus nidulans = assay: Antifungal activity against Aspergillus nidulans by microdilution test; format: functional, organism-based
[4] = Antifungal activity against Exophiala oligosperma by microdilution test; format: functional
[5] = Antifungal activity against Cladophialophora carrionii by microdilution test; format: functional
Cryptococcus neoformans = assay: Antifungal activity against Cryptococcus neoformans by microdilution test; format: functional

Compound	MIC [1] [µg/mL]	MIC (Pichia kudriavzevii) [µg/mL]	MIC (Aspergillus flavus) [µg/mL]	MIC (Candida albicans) [µg/mL]	MIC (Candida parapsilosis) [µg/mL]	Activity (Aspergillus nidulans)	Activity [4]	Activity [1]	Activity (Pichia kudriavzevii)	Activity [5]	Activity (Cryptococcus neoformans)	Activity (Aspergillus flavus)	Activity (Candida albicans)	Activity (Candida parapsilosis)	Activity (Nakaseomyces glabratus)	Activity (Exophiala spinifera)	Activity (Aspergillus niger)	Activity [2]	Activity [3]	Activity (Aspergillus terreus)	further results
C[C@@H]1[C@H](O)[C@@H](C)/C=C/C=C/C=C/C=C/C=C/C=C/C=C/[C@H](O[C@@H]2O[C@H](C)[C@@H](O)[C@H](N)[C@@H]2O)C[C@@H]2O[C@](O)(C[C@@H](O)C[C@@H](O)[C@H](O)CC[C@@H](O)C[C@@H](O)CC(=O)O[C@H]1C)C[C@H](O)[C@H]2C(=O)O [AMPHOTERICIN B]	0.5 (≈ 0.541 µM)	0.25 (≈ 0.271 µM)	0.25 (≈ 0.271 µM)	0.5 (≈ 0.541 µM)	0.5 (≈ 0.541 µM)																MIC (Nakaseomyces glabratus): 0.25 µg/mL (≈ 0.271 µM); MIC (Exophiala spinifera): 1 µg/mL (≈ 1.08 µM); MIC (Aspergillus niger): 0.5 µg/mL (≈ 0.541 µM); MIC [2]: 1 µg/mL (≈ 1.08 µM); MIC [3]: 1 µg/mL (≈ 1.08 µM); MIC (Aspergillus terreus): 2 µg/mL (≈ 2.16 µM)
CN(C)S(=O)(=O)c1ccc2c(c1)N(C(=O)CCCl)c1ccccc1S2						inactive	inactive	inactive	inactive	inactive	inactive	inactive	inactive	inactive	inactive	inactive	inactive	inactive	inactive	inactive	
OCCC1CCNCC1						inactive	inactive	inactive	inactive	inactive	inactive	inactive	inactive	inactive	inactive	inactive	inactive	inactive	inactive	inactive	
O=C(CCl)Nc1ccccc1Sc1ccccc1						inactive	inactive	inactive	inactive	inactive	inactive	inactive	inactive	inactive	inactive	inactive	inactive	inactive	inactive	inactive	
CN(C/C=C/C#CC(C)(C)C)Cc1cccc2ccccc12 [TERBINAFINE]	0.25 (≈ 0.858 µM)	0.06 (≈ 0.206 µM)	0.25 (≈ 0.858 µM)	0.5 (≈ 1.72 µM)	0.06 (≈ 0.206 µM)																MIC [4]: 0.06 µg/mL (≈ 0.206 µM); MIC [5]: 0.25 µg/mL (≈ 0.858 µM); MIC (Cryptococcus neoformans): 0.25 µg/mL (≈ 0.858 µM); MIC (Nakaseomyces glabratus): 0.06 µg/mL (≈ 0.206 µM); MIC (Exophiala spinifera): 0.06 µg/mL (≈ 0.206 µM); MIC (Aspergillus niger): 0.125 µg/mL (≈ 0.429 µM); MIC [2]: 0.06 µg/mL (≈ 0.206 µM); MIC [3]: 0.5 µg/mL (≈ 1.72 µM); MIC (Aspergillus terreus): 0.06 µg/mL (≈ 0.206 µM)
O=C(CCl)N1c2ccccc2Oc2ccccc21						inactive	inactive	inactive	inactive	inactive	inactive	inactive	inactive	inactive	inactive	inactive	inactive	inactive	inactive	inactive	
CN(C)S(=O)(=O)c1ccc2c(c1)N(CCCN1CCC(CCO)CC1)c1ccccc1S2 [PIPOTIAZINE]	> 512	512 (≈ 1080 µM)	> 512	256 (≈ 538 µM)	256 (≈ 538 µM)																MIC [4]: 512 µg/mL (≈ 1080 µM); MIC [5]: 256 µg/mL (≈ 538 µM); MIC (Cryptococcus neoformans): 256 µg/mL (≈ 538 µM); MIC (Nakaseomyces glabratus): 256 µg/mL (≈ 538 µM); MIC (Exophiala spinifera): 256 µg/mL (≈ 538 µM); MIC (Aspergillus niger): > 512 µg/mL; MIC [2]: 512 µg/mL (≈ 1080 µM); MIC [3]: 256 µg/mL (≈ 538 µM); MIC (Aspergillus terreus): > 512 µg/mL
O=C(CCl)N(c1ccccc1)c1ccccc1						inactive	inactive	inactive	inactive	inactive	inactive	inactive	inactive	inactive	inactive	inactive	inactive	inactive	inactive	inactive	
Nc1nc(=O)[nH]cc1F [FLUCYTOSINE]	0.5 (≈ 3.87 µM)	0.5 (≈ 3.87 µM)	1 (≈ 7.75 µM)	2 (≈ 15.5 µM)	0.5 (≈ 3.87 µM)																MIC [4]: 4 µg/mL (≈ 31 µM); MIC [5]: 1 µg/mL (≈ 7.75 µM); MIC (Cryptococcus neoformans): 0.5 µg/mL (≈ 3.87 µM); MIC (Nakaseomyces glabratus): 1 µg/mL (≈ 7.75 µM); MIC (Exophiala spinifera): 2 µg/mL (≈ 15.5 µM); MIC (Aspergillus niger): 0.5 µg/mL (≈ 3.87 µM); MIC [2]: 8 µg/mL (≈ 62 µM); MIC [3]: 1 µg/mL (≈ 7.75 µM); MIC (Aspergillus terreus): 1 µg/mL (≈ 7.75 µM)
OC(Cn1cncn1)(Cn1cncn1)c1ccc(F)cc1F [FLUCONAZOLE]	16 (≈ 52.2 µM)	64 (≈ 209 µM)	16 (≈ 52.2 µM)	2 (≈ 6.53 µM)	1 (≈ 3.27 µM)																MIC (Cryptococcus neoformans): 8 µg/mL (≈ 26.1 µM); MIC (Nakaseomyces glabratus): 1 µg/mL (≈ 3.27 µM); MIC (Exophiala spinifera): 16 µg/mL (≈ 52.2 µM); MIC (Aspergillus niger): 16 µg/mL (≈ 52.2 µM); MIC [2]: 16 µg/mL (≈ 52.2 µM); MIC [3]: 4 µg/mL (≈ 13.1 µM); MIC (Aspergillus terreus): 16 µg/mL (≈ 52.2 µM)
O=C(CCCl)N1c2ccccc2Sc2ccccc21						inactive	inactive	inactive	inactive	inactive	inactive	inactive	inactive	inactive	inactive	inactive	inactive	inactive	inactive	inactive	
O=C(CCl)N1c2ccccc2Sc2ccccc21	16 (≈ 58 µM)	32 (≈ 116 µM)	32 (≈ 116 µM)	32 (≈ 116 µM)	32 (≈ 116 µM)																MIC [4]: 16 µg/mL (≈ 58 µM); MIC [5]: 4 µg/mL (≈ 14.5 µM); MIC (Cryptococcus neoformans): 8 µg/mL (≈ 29 µM); MIC (Nakaseomyces glabratus): > 512 µg/mL; MIC (Exophiala spinifera): 16 µg/mL (≈ 58 µM); MIC (Aspergillus niger): 2 µg/mL (≈ 7.25 µM); MIC [2]: 16 µg/mL (≈ 58 µM); MIC [3]: 32 µg/mL (≈ 116 µM); MIC (Aspergillus terreus): 16 µg/mL (≈ 58 µM)
CC(CN1c2ccccc2Sc2ccccc21)N(C)C (configuration not stated) [PROMETHAZINE]	256 (≈ 900 µM)	256 (≈ 900 µM)	256 (≈ 900 µM)	> 512	512 (≈ 1800 µM)																MIC [4]: 256 µg/mL (≈ 900 µM); MIC [5]: 512 µg/mL (≈ 1800 µM); MIC (Cryptococcus neoformans): 256 µg/mL (≈ 900 µM); MIC (Nakaseomyces glabratus): > 512 µg/mL; MIC (Exophiala spinifera): 256 µg/mL (≈ 900 µM); MIC (Aspergillus niger): 256 µg/mL (≈ 900 µM); MIC [2]: 256 µg/mL (≈ 900 µM); MIC [3]: 512 µg/mL (≈ 1800 µM); MIC (Aspergillus terreus): 256 µg/mL (≈ 900 µM)
CN(C)S(=O)(=O)c1ccc2c(c1)N(C(=O)CCl)c1ccccc1S2						inactive	inactive	inactive	inactive	inactive	inactive	inactive	inactive	inactive	inactive	inactive	inactive	inactive	inactive	inactive	
O=C(CCl)n1c2ccccc2c2ccccc21						inactive	inactive	inactive	inactive	inactive	inactive	inactive	inactive	inactive	inactive	inactive	inactive	inactive	inactive	inactive	
CC(=O)N1c2ccccc2Sc2ccccc21						inactive	inactive	inactive	inactive	inactive	inactive	inactive	inactive	inactive	inactive	inactive	inactive	inactive	inactive	inactive	
ClCCCN1c2ccccc2Sc2ccccc21						inactive	inactive	inactive	inactive	inactive	inactive	inactive	inactive	inactive	inactive	inactive	inactive	inactive	inactive	inactive	
CCC(C)n1ncn(-c2ccc(N3CCN(c4ccc(OCC5COC(Cn6cncn6)(c6ccc(Cl)cc6Cl)O5)cc4)CC3)cc2)c1=O (configuration not stated) [ITRACONAZOLE]	0.25 (≈ 0.354 µM)	0.06 (≈ 0.085 µM)	0.125 (≈ 0.177 µM)	0.125 (≈ 0.177 µM)	0.125 (≈ 0.177 µM)																MIC [4]: 0.125 µg/mL (≈ 0.177 µM); MIC [5]: 0.06 µg/mL (≈ 0.085 µM); MIC (Cryptococcus neoformans): 0.25 µg/mL (≈ 0.354 µM); MIC (Nakaseomyces glabratus): 0.25 µg/mL (≈ 0.354 µM); MIC (Exophiala spinifera): 0.06 µg/mL (≈ 0.085 µM); MIC (Aspergillus niger): 0.125 µg/mL (≈ 0.177 µM); MIC [2]: 0.06 µg/mL (≈ 0.085 µM); MIC [3]: 0.5 µg/mL (≈ 0.709 µM); MIC (Aspergillus terreus): 0.125 µg/mL (≈ 0.177 µM)
